Read-outs that look alike come from different tables or passages of the source.
Legend:
[1] = test system: Caki-2 tumor cells (human clear cell renal cell carcinoma); conditions: 5 μM, 24 hours at 37° C., co-culture with normal fibroblast
Method: (§1) Normal fibroblast and Caki-2 tumor cells (human clear cell renal cell carcinoma) were plated and co-cultured overnight (FIG. 1F). […] The next day cells were washed and co-stained with nucleus stain (Hoescht 33342). CLR 1501 was excited and then detected with an Alexa-Fluor 488 filter.

Normal fibroblast = conditions: 5 μM, 24 hours at 37° C., co-culture with Caki-2 tumor cells
Method: as §1

[2] = test system: PC3 (grade IV, human prostate adenocarcinoma) cell lines; conditions: 5 μM, 24 hours at 37° C.
Method: PC3 (grade IV, human prostate adenocarcinoma) cell lines were cultured overnight on micro slide VI (Ibidi, Verona, WI). […] The next day after washing with PBS, the cells were co-stained with nucleus stain (Hoechst 33342) and mitochondria marker (Mitotracker®) (Invitrogen, Carlsbad, CA). The cells were observed using Nikon A1R confocal microscope. CLR 1501 was excited and detected using Alexa-Fluor 488 filter, while nucleus stain and mitochondria stain were excited and detected using DAPI filter and Texas-Red filter, respectively.

Adrenal H-295 = conditions: SCID Mouse, Adenocarcinoma
Text: (§2) Various cancer cell lines were exposed in vitro and in vivo to a fluorescently labelled PLE (CLR 1501, compound (1)).

Adrenal RL-251 = conditions: SCID Mouse, Adenocarcinoma
Text: as §2

Breast 4T1 = conditions: Endogenous Mouse (orthotopic), Adenocarcinoma
Text: as §2

Breast MCF-7 = conditions: Rat, Adenocarcinoma
Text: as §2

Cervical = conditions: Endogenous Mouse, Adenocarcinoma
Text: as §2

Colon CT-26 = conditions: SCID Mouse, Adenocarcinoma
Text: as §2

Colon DLDI = conditions: SCID Mouse, Colorectal adenocarcinoma
Text: as §2

Colon HT-29 = conditions: SCID Mouse, Colorectal adenocarcinoma
Text: as §2

Colon LS-180 = conditions: Nude Mouse, Adenocarcinoma
Text: as §2

Colon-51 = conditions: SCID Mouse, Colorectal adenocarcinoma
Text: as §2

ColonLS180 = conditions: SCID Mouse, Colorectal adenocarcinoma
Text: as §2

Esophageal = conditions: Endogenous Mouse, Adenocarcinoma
Text: as §2

Glioma C6 = conditions: Rat xenograft
Text: as §2

Glioma CNS1 = conditions: Rat xenograft
Text: as §2

Glioma L9 = conditions: Rat xenograft
Text: as §2

Glioma RG2 = conditions: Rat xenograft
Text: as §2

Hepatocellular Carcinoma = conditions: Endogenous Mouse, Adenocarcinoma
Text: as §2

Lung A-549 (NSCLC) = conditions: SCID Mouse, Adenocarcinoma
Text: as §2

Lung NCI H-69 (Oat Cell) = conditions: SCID Mouse
Text: as §2

Mammary AC = conditions: Apc^Min/+ mouse, Adenocarcinoma
Text: as §2

Mammary SCC = conditions: Apc^Min/+ mouse, Squamous cell carcinoma
Text: as §2

Melanoma A-375 = conditions: Nude Mouse
Text: as §2

Melanoma = conditions: Mouse, Adenocarcinoma
Text: as §2

Min Mouse Intestinal = conditions: Endogenous Mouse, Adenocarcinoma
Text: as §2

Ovarian HTB-77 = conditions: Nude Mouse, Adenocarcinoma
Text: as §2

Pancreatic BXPC3 = conditions: Nude Mouse, Adenocarcinoma
Text: as §2

Pancreatic Capan-1 = conditions: Nude Mouse, Adenocarcinoma
Text: as §2

Pancreatic Kras = conditions: Endogenous Mouse, Adenocarcinoma
Text: as §2

Pancreatic c-myc = conditions: Endogenous Mouse, Adenocarcinoma
Text: as §2

Prostate LnCap = conditions: Mouse, Adenocarcinoma
Text: as §2

Prostate LuCap = conditions: Mouse, Adenocarcinoma
Text: as §2

Prostate MatLyLu = conditions: Rat, Adenocarcinoma
Text: as §2

Prostate PC-3 = conditions: SCID Mouse, Adenocarcinoma
Text: as §2

Renal Cell ACHN = conditions: Nude Mouse (orthotopic), Adenocarcinoma
Text: as §2

Renal Cell Caki-2 = conditions: Nude Mouse (orthotopic), Adenocarcinoma
Text: as §2

Retinoblastoma = conditions: Endogenous Mouse, Blastoma
Text: as §2

SCC1 = conditions: Nude Mouse, Squamous cell carcinoma
Text: as §2

SCC6 = conditions: Nude Mouse
Text: as §2

Sarcoma (Meth-A) = conditions: Nude Mouse, Fibrosarcoma
Text: as §2

TRAMP prostate = conditions: Endogenous Mouse, Adenocarcinoma
Text: as §2

[3] = test system: Various cancer cell lines; conditions: in vitro and in vivo; uptake measured continuously for 24 hours
Text: as §2

Walker-256 = conditions: Rat, Carcinosarcoma
Text: as §2

[4] = test system: cancer stem cells, normal brain tissue, and normal stem cells; conditions: FIG. 7
Text: as §2

myeloma cell lines = conditions: FIG. 6
Text: as §2

A549 cells = A549 cells treated with methyl b-cyclodextrin compared to untreated cells; 5 μμM, 24 hours
benign tissues = conditions: in vivo
[5] = test system: A549 (human lung adenocarcinoma) cells; test: Cytotoxicity of parent compound versus PDC, tumor cells (Example 8); format: cell-based; conditions: increasing concentrations; for Cytotoxic potency to A549 cells versus NHDF cells (selectivity): FIG. 3
Method: (§3) A549 (human lung adenocarcinoma) cells and normal human dermal fibroblasts (NHDF) were plated in 96 well dishes overnight. […] The difference between the cytotoxicity of the PDC molecule for tumor cells and that of the normal cells may have indicated a potential to improve the parent molecules therapeutic index.

[6] = test system: normal human dermal fibroblasts (NHDF); test: Cytotoxicity of parent compound versus PDC, normal cells (Example 8); format: cell-based; conditions: increasing concentrations
Method: as §3

[7] = test system: A549 (human lung adenocarcinoma); test: cells; format: cell-based; conditions: various concentrations; A549 and NHDF; FIG. 8
[8] = test system: NHDF (normal human dermal fibroblasts); test: cells; format: cell-based
[9] = format: in vivo, mice
Method: Listed in Table 5 are the doses administered to the mice, and how many mice were alive after treatment (“3/3” indicates 3 out of 3 mice were alive). […] MTD for CLR 1865 was between 5 and 10 mg/kg.

[10] = test system: HCT 116 cells (human colon cancer); format: in vivo; parameters: dose or concentration left out as unconfirmed; conditions: HCT 116 tumor model; three doses; FIG. 9
A375 and A549 cells = test: Levels of FLV3 in cell lysate and growth media (LC/MS); format: cell-based, human
Method: FIG. 11 is a graph of concentration versus time for FLV3 detected in the cytosol (normalized to the cytosolic volume) in A375 (human melanoma) and A549 (human lung adenocarcinoma) cell lines.
The levels of FLV3 in cell lysate and growth media were measured using LC/MS. […] Levels of intracellular FLV3 appeared to plateau at 24 hours, while extracellular levels of FLV3 continued to increase.

Method for Plasma stability, human: (§4) A small amount of molecule was exposed to plasma, and the plasma was then analyzed via HPLC or MS to determine if the molecule was degraded.
Method for Plasma stability, mouse: as §4

With `C[N+](C)(C)CCOP(=O)([O-])OCCCCCCCCCCCCCCCCCCc1ccc(C2=C3C=CC=[N+]3[B-](F)(F)n3cccc32)cc1` [CLR 1501] the “Localization in Caki-2 cells” value [1] was “highly localized”, the “Localization in normal fibroblast cells” value (Normal fibroblast) was “minimally” and the Co-localization with mitochondria [2] was “co-localized with mitochondria”. For the same compound, the “Tumor Uptake” value (Adrenal H-295) was “Yes”, the “Tumor Uptake” value (Adrenal RL-251) was “Yes” and the “Tumor Uptake” value (Breast 4T1) was “Yes”. The “Tumor Uptake” value (Breast MCF-7) was “Yes”, the “Tumor Uptake” value (Cervical) was “Yes” and the “Tumor Uptake” value (Colon CT-26) was “Yes”. For the same compound, the “Tumor Uptake” value (Colon DLDI) was “Yes”, the “Tumor Uptake” value (Colon HT-29) was “Yes” and the “Tumor Uptake” value (Colon LS-180) was “Yes”. The “Tumor Uptake” value (Colon-51) was “Yes”, the “Tumor Uptake” value (ColonLS180) was “Yes” and the “Tumor Uptake” value (Esophageal) was “Yes”. For the same compound, the “Tumor Uptake” value (Glioma C6) was “Yes”, the “Tumor Uptake” value (Glioma CNS1) was “Yes” and the “Tumor Uptake” value (Glioma L9) was “Yes”. The “Tumor Uptake” value (Glioma RG2) was “Yes”, the “Tumor Uptake” value (Hepatocellular Carcinoma) was “Yes” and the “Tumor Uptake” value (Lung A-549 (NSCLC)) was “Yes”. The “Tumor Uptake” value (Lung NCI H-69 (Oat Cell)) was “Yes”, the “Tumor Uptake” value (Mammary AC) was “Yes” and the “Tumor Uptake” value (Mammary SCC) was “Yes”. For the same compound, the “Tumor Uptake” value (Melanoma A-375) was “Yes”, the “Tumor Uptake” value (Melanoma) was “Yes” and the “Tumor Uptake” value (Min Mouse Intestinal) was “Yes”. For the same compound, the “Tumor Uptake” value (Ovarian HTB-77) was “Yes”, the “Tumor Uptake” value (Pancreatic BXPC3) was “Yes” and the “Tumor Uptake” value (Pancreatic Capan-1) was “Yes”. The “Tumor Uptake” value (Pancreatic Kras) was “Yes”, the “Tumor Uptake” value (Pancreatic c-myc) was “Yes” and the “Tumor Uptake” value (Prostate LnCap) was “Yes”. The “Tumor Uptake” value (Prostate LuCap) was “Yes”, the “Tumor Uptake” value (Prostate MatLyLu) was “Yes” and the “Tumor Uptake” value (Prostate PC-3) was “Yes”. The “Tumor Uptake” value (Renal Cell ACHN) was “Yes”, the “Tumor Uptake” value (Renal Cell Caki-2) was “Yes” and the “Tumor Uptake” value (Retinoblastoma) was “Yes”. For the same compound, the “Tumor Uptake” value (SCC1) was “Yes”, the “Tumor Uptake” value (SCC6) was “Yes” and the “Tumor Uptake” value (Sarcoma (Meth-A)) was “Yes”. The “Tumor Uptake” value (TRAMP prostate) was “Yes”, the “Specificity for tumors and cancer cells” value [3] was “specific for tumors and cancer cells” and the “Tumor Uptake” value (Walker-256) was “Yes”. For the same compound, the “Uptake into cancer cells versus normal brain tissue and normal stem cells” value [4] was “specific uptake”, the “Uptake, myeloma cell lines” value (myeloma cell lines) was “uptake” and the “Reduction in uptake after disruption of lipid rafts” value (A549 cells) was 60%. The “Uptake in benign tissues” value (benign tissues) was “no uptake was observed”.

For `COC(=O)[C@H]1[C@@H](O)[C@@]2(O)c3c(OC)cc(OCCCCNC(=O)OCC(C)(C)SSCCCCCCCCCCCCCCCCCCOP(=O)([O-])OCC[N+](C)(C)C)cc3O[C@@]2(c2ccc(OC)cc2)[C@@H]1c1ccccc1` [CLR 1852], the “Cytotoxic potency in A549 cells relative to the parent molecule” value [5] was “near similar potency to the parent molecule in A549 cells”, the “Cytotoxic potency to A549 cells versus NHDF cells (selectivity)” value (shortened to “Cytotoxic potency … (selectivity)”) [5] was “selectivity for the A549 cells” and the “Cytotoxic effect on NHDF cells” value [6] was “almost no effect on NHDF cells until the highest concentrations”. The “Cytotoxic potency compared to FLV3 alone” value [7] was “modest loss in potency compared to FLV3 alone”, the “Therapeutic Index (TI)” value [8] was 360 and the “Therapeutic Index (TI) (value in parentheses)” value [8] was 915. The “Mice alive after treatment” value ([9]; Dose 0.1 mg/kg) was 3/3, the “Mice alive after treatment” value ([9]; Dose 0.25 mg/kg) was 3/3 and the “Mice alive after treatment” value ([9]; Dose 0.5 mg/kg) was 3/3. For the same compound, the “Mice alive after treatment” value ([9]; Dose 1.0 mg/kg) was 3/3, the “Mice alive after treatment” value ([9]; Dose 5.0 mg/kg) was 3/3 and the “Mice alive after treatment” value ([9]; Dose 10.0 mg/kg) was 3/3. For the same compound, the “Maximum tolerated dose (MTD)” value ([9]; mice) was “did not achieve a maximum tolerated dose”, the “Tolerability compared to FLV3 alone” value ([9]; mice) was “excellent improvement in tolerability compared to FLV3 alone” and the “In vivo therapeutic index” value ([9]; mouse, in vivo) was “at least 25”. For the same compound, the “Time from which tumor volume was reduced compared to vehicle” value [10] was “around 27 days”, the “Time at which levels of intracellular FLV3 plateau” value (A375 and A549 cells) was 24 h and the “Levels of FLV3 in the growth media” value (A375 and A549 cells; after 24 hours) was “Moderate levels”. The “Levels of FLV3 in the cell lysate” value (A375 and A549 cells; after 24 hours, FIG. 11) was “high levels”, the “Human half-life” value (Plasma stability, human) was >6.67 h and the Human plasma stability (Plasma stability, human) was “excellent human plasma stability”. For the same compound, the “Mouse half-life” value (Plasma stability, mouse; mouse plasma) was >6.67 h and the “Time stable in plasma” value (Plasma stability, mouse; plasma, species not stated) was “at least 7 hours”.

In the case of `COc1ccc([C@@]23Oc4cc(OCCCCNC(=O)OCC(C)(C)SSCCCCCCCCCCCCCCCCCCOP(=O)([O-])OCC[N+](C)(C)C)cc(OC)c4[C@]2(O)[C@H](O)[C@H](C(=O)O)[C@H]3c2ccccc2)cc1` [CLR 1865], the “Cytotoxic potency in A549 cells relative to the parent molecule” value [5] is reported as “near similar potency to the parent molecule in A549 cells”, the “Cytotoxic potency … (selectivity)” value [5] is reported as “selectivity for the A549 cells” and the “Cytotoxic effect on NHDF cells” value [6] is reported as “almost no effect on NHDF cells until the highest concentrations”. The “Therapeutic Index (TI) (value in parentheses)” value ([8]; from the NHDF value in parentheses) was 37.3, the “Therapeutic Index (TI)” value ([8]; not defined, equals NHDF IC50 over lowest tumor line IC50) was 11.64 and the “Mice alive after treatment” value ([9]; Dose 0.1 mg/kg) was 3/3. The “Mice alive after treatment” value ([9]; Dose 0.25 mg/kg) was 3/3, the “Mice alive after treatment” value ([9]; Dose 0.5 mg/kg) was 3/3 and the “Mice alive after treatment” value ([9]; Dose 1.0 mg/kg) was 3/3. For the same compound, the “Mice alive after treatment” value ([9]; Dose 5.0 mg/kg) was 3/3, the “Mice alive after treatment” value ([9]; Dose 10.0 mg/kg) was 2/3 and the “In vivo therapeutic index” value ([9]; mice) was ≥ 12.5. The “Tolerability compared to FLV3 alone” value ([9]; mice) was “excellent improvement in tolerability compared to FLV3 alone”, the “Human half-life” value (Plasma stability, human) was >6.67 h and the Human plasma stability (Plasma stability, human) was “excellent human plasma stability”. The “Mouse half-life” value (Plasma stability, mouse; mouse plasma) was 3.32 h and the “Time stable in mouse plasma” value (Plasma stability, mouse; mouse plasma) was 3.3 h.

With `COc1ccc([C@]23Oc4cc(OCCCCN)cc(OC)c4[C@@]2(O)[C@@H](O)[C@@H](C(=O)O)[C@@H]3c2ccccc2)cc1` [FLV1, reference compound] the “Cytotoxic potency … (selectivity)” value [5] was “near equal potency to the A549 cells as it did to the NHDF cells”.

— US12503479B2, “Phospholipid-flavagline conjugates and methods of using the same for targeted cancer therapy” (Cellectar Biosciences, Inc., priority 2018, dated 2025)
